We go through 1 molecule from publication PMC4649711, “In1-ghrelin splicing variant is overexpressed in pituitary adenomas and increases their aggressive features” (Scientific Reports, 2015).

Test [1] relates to GH-omas (tumoral pituitary cells). In words: free cytosolic calcium kinetics ([Ca^2+]i), GH-oma cells. Type of test: cell-based, human. The method, then: (§1) Pituitary adenoma specimens were dispersed into single cells by enzymatic and mechanical disruption and cultured onto tissue culture plates in serum containing medium, as previously described. Briefly, pituitary samples were resected by endoscopic transsphenoidal surgery and transferred to sterile cold (4°C) culture medium (S-MEM, Gibco, Madrid, Spain) supplemented with 0.1% BSA, 0.01% L-glutamine, 1% antibiotic-antimycotic solution, and 2.5% HEPES. Samples were minced under sterile conditions into 1–2 mm^3 pieces. Some pieces were stored at −80°C for posterior RNA isolation and, when possible, the remaining tissue samples were washed and incubated in 30 mL S-MEM medium supplemented 0.3% trypsin (Beckson, Dickinson and Company, Sparks, MD, USA) in a spinner flask (Bellco Glass, Vineland, NJ, USA) for 2 h of gentle shaking at 37°C and then, incubation was continued for another 5 min in presence of 1 mg of DNAse I (Roche, Mannheim, Germany). Dispersed cells were decanted by centrifugation and then, by repeated aspiration into a smoothtipped glass Pasteur pipette. […]
(§2) As previously reported, changes in [Ca^2+]i in single cells were measured using fura-2AM (50,000 cells/coverslip; Molecular Probes, Eugene, OR)[23][30]. […] Cells were examined for changes in [Ca^2+]i after the appropriate treatment (native ghrelin, In1-19 or In1-40) using a 40× objective with Immersion Oil Type NF (Nikon, Tokyo, Japan) while exposed to alternating 340–380 nm light beams, and the intensity of light emission at 505 nm was measured every 5 seconds using MetaFluor Software (Imaging Corp., West Chester, PA, USA). […] Changes in [Ca^2+]i in CHO-K1 cell line expressing recombinant GHSR1a or GHSR1b receptor were measured using Calcium 4 Explorer Kit (Molecular Devices, Sunnyvale, CA, USA). […] Fluorescent signals were then monitored using the FLIPR Tetra (Molecular Devices, Sunnyvale, CA, USA) during which cells were stimulated with compounds. Dose-response curves were analyzed using GraphPad Prism v5.04 (La Jolla, CA, USA).

Test [2] has as its system NFPA (tumoral pituitary cells). Description: free cytosolic calcium kinetics ([Ca^2+]i), NFPA cells. It is filed as cell-based, human. As to the method: as §1, §2
A further test relates to p-Akt. In words: Akt phosphorylation by western blot in GH-omas. Type of test: cell-based, human. Particulars: 100 nM, 8 minutes, p-Akt/total Akt vs vehicle (100%), n = 4. The method, then:
as §1, with “pipette. Cells suspensions were washed once in 4.5 g/L glucose containing DMEM medium (Gibco, Madrid, Spain) supplemented with 0.1% BSA, 0.01% L-glutamine, 1% antibiotic-antimycotic solution, and 2.5% HEPES.” for “pipette.”
Background: Immunoblotting shows a protein as a band on a membrane.

In a further test the test system is AtT-20 cell line. In words: ACTH secretion from AtT-20 cell line. Type of test: cell-based, mouse. The following applies: 4 h, 3–5 independent experiments. The method, then:
The mouse corticotroph pituitary derived cell line AtT-20/D16v-F2 (ATCC® CRL-1795) was cultured and maintained in Dulbecco's Modified Eagle's Medium (DMEM) complemented with 10% FBS, 100 U/ml penicillin/streptomycin, 0.024 M of 2-(4(2-hydroxyethyl)-1-piperazine)-ethane sulfonic acid (HEPES), and maintained at 37°C and 5% CO2, under sterile conditions. CHO-K1 cell line(ATCC® CCL-61) expressing recombinant human GHSR1a (GenBank accession number U60179) or GHSR1b (GenBank accession number U60181) were cultured and maintained in Ham's F12 media (Corning #10-080-CV) supplemented with 10% FBS, 2 mM L-Glutamine and 0.4 mg/mL Geneticin.
To examine the effects of ghrelin system components (4- and/or 24 h-incubation) on pituitary hormone release from primary pituitary adenoma and/or AtT-20 cell line, 100,000–200,000 cell/well were used. As previously reported, hormone concentrations were measured in the culture media derived from human samples according to the pituitary adenoma type using commercial ELISAs [growth hormone, GH; adrenocorticotropin, ACTH; and prolactin, PRL (reference numbers: EIA-3552, EIA-3647 and EIA-1291, respectively; DRG, Mountainside, NJ, USA)] following the manufacturer's instructions. All the information regarding specificity, detectability, and reproducibility for each of the assays can be accessed at the web site of the company.

Values joined by “and” are separate entries in the source; they are usually repeats but may differ in a detail not shown here. Equal values may be shown once. “Also recorded” adds a separate entry of the source.

In the case of `CCCCCCCC(=O)OC[C@H](NC(=O)[C@H](CO)NC(=O)CN)C(=O)N[C@@H](Cc1ccccc1)C(=O)N[C@@H](CC(C)C)C(=O)N[C@@H](CO)C(=O)N1CCC[C@H]1C(=O)N[C@@H](CCC(=O)O)C(=O)N[C@@H](Cc1c[nH]cn1)C(=O)N[C@@H](CCC(N)=O)C(=O)N[C@@H](CCCNC(=N)N)C(=O)N[C@H](C(=O)N[C@@H](CCC(N)=O)C(=O)N[C@@H](CCC(N)=O)C(=O)N[C@@H](CCCNC(=N)N)C(=O)N[C@@H](CCCCN)C(=O)N[C@@H](CCC(=O)O)C(=O)N[C@@H](CO)C(=O)N[C@@H](CCCCN)C(=O)N[C@@H](CCCCN)C(=O)N1CCC[C@H]1C(=O)N1CCC[C@H]1C(=O)N[C@@H](C)C(=O)N[C@@H](CCCCN)C(=O)N[C@@H](CC(C)C)C(=O)N[C@@H](CCC(N)=O)C(=O)N1CCC[C@H]1C(=O)N[C@@H](CCCNC(=N)N)C(=O)O)C(C)C` [AG], the “[Ca^2+]i response (in words)” value in test [1] (fura-2AM) is “doubling the [Ca^2+]i levels; also recorded: increased [Ca^2+]i”; in test [2] (NFPAs, fura-2AM) it was “a subset of NFPA cells is responsive”. In addition, the “% cell resp.” value was 74% in test [1] (proportion of responsive cells, fura-2AM single-cell imaging); 29% and 29.4% in test [2] (NFPA, proportion of responsive cells, fura-2AM single-cell imaging). Further, the “# samples” value is reported as 27/27 in test [1] (responsive/tested samples, fura-2AM single-cell imaging, 1500 / 983 / 520 cells analyzed for AG / In1-19 / In1-40, peptides 100 nM (abstract)) and 9/15 in test [2] (NFPA, responsive/tested samples, fura-2AM, 408 / 367 / 29 cells analyzed for AG / In1-19 / In1-40, peptides 100 nM (abstract)). Further, the p-Akt levels result with p-Akt was “increased both, p-ERK1/2 as well as p-Akt, levels”. Moreover, the “basal ACTH release” value in the test on AtT-20 cell line was “did not significantly alter basal ACTH release”.
